Reference: patent publication US20050159427A1, “N-acylsulfonamide apoptosis promoters” (priority 2003, published 2005)

Columns and labels:
RS11380 = RS11380 model of B-cell follicular lymphoma; assay type: in vivo
HT-29 = experiment: Tumor cell viability (TABLE 1); assay type: cell-based; settings: Homo sapiens, read-out: EC50 (50% reduction in cell viability); HT-29 (Colorectal); serum-free conditions, 48 hour treatment; mean ± SEM
SK-MEL-28 = experiment: Tumor cell viability (TABLE 1); assay type: cell-based; settings: Homo sapiens, read-out: EC50 (50% reduction in cell viability); SK-MEL-28 (Melanoma); serum-free conditions, 48 hour treatment; mean ± SEM
SK-OV-3 = experiment: Tumor cell viability (TABLE 1); assay type: cell-based; settings: Homo sapiens, read-out: EC50 (50% reduction in cell viability); SK-OV-3 (Ovarian); serum-free conditions, 48 hour treatment; mean ± SEM
RXF-393 = experiment: Tumor cell viability (TABLE 1); assay type: cell-based; settings: Homo sapiens, read-out: EC50 (50% reduction in cell viability); RXF-393 (Renal); serum-free conditions, 48 hour treatment; mean ± SEM

With `CN(C)CC[C@H](CSc1ccccc1)Nc1ccc(S(=O)(=O)NC(=O)c2ccc(N3CCN(Cc4ccccc4-c4ccc(Cl)cc4)CC3)cc2)cc1[N+](=O)[O-]` [EXAMPLE 2, N-(4-(4-((4′-chloro(1,1′-biphenyl)-2-yl)methyl)piperazin-1-yl)benzoyl)-4-(((1R)-3-(dimethylamino)-1-((phenylsulfanyl)methyl)propyl)amino)-3-nitrobenzenesulfonamide] the “activity in follicular lymphoma model” value (RS11380) was “significant activity”, the EC50 (HT-29) was 1.1 ± 1.1 µM and the EC50 (SK-MEL-28) was 9.3 ± 0.1 µM. It also gave an EC50 (SK-OV-3) of 5.6 ± 1 µM and an EC50 (RXF-393) of 2.9 ± 0.4 µM.
